# Results: patent US20110098219A1, “System for Curing Hepatic Cancer with Leptin” (KAOHSIUNG MEDICAL UNIVERSITY, priority 2009, published 2011)
# Test system: liver cancer patients
# Experiment: Survival of liver cancer patients treated with MPA after surgery
# Format: in vivo, human
# Conditions: P value 0.008
# Excerpt: In ‘in vitro’ studies and clinical experiments, leptin and MPA are found to have obvious effect on suppressing liver cancer cells and improving patient's survival rate. Thus, the therapeutic drug is formed by combining MAP with leptin to cure liver cancer patients, where the physiological concentration of leptin in a normal human body is almost able to enhance the treatment effect of MPA. MPA is used for treatment in the present invention, where, for obtaining a better effect, leptin is directly combined with MPA or leptin is obtained by increasing the physiological concentration of leptin in the patient at first.
# Consequently, the leptin expression can be taken as an index for effectiveness of the hormone therapy (i.e. MPA) after the surgery; and, the survival time of the liver cancer patients can be maintained or even prolonged.
structure (smiles),measurement,value
"CC(=O)O[C@]1(C(C)=O)CC[C@H]2[C@@H]3C[C@H](C)C4=CC(=O)CC[C@]4(C)[C@H]3CC[C@@]21C [MPA, medroxyprogesterone acetate]","survival time, patients with higher versus lower leptin expression",longer survival time
